The assay has as its target T1, human B-Raf (Homo sapiens, UniProt P15056).
T1 construct: Flag; GST; made in house; host or cells: Sf9 insect cells (B-Raf); E. coli (MEK1-GST)
As to the kind of experiment: B-Raf Kinase to MEK1 ELISA. The following applies: for IC50: median, cpd concentrations from 10 μM to 30 nM in half log dilutions, read-out: Median IC50; for inhibition at 10 µM: read-out: % Inhib./10 uM. It counts as biochemical. The method, boiled down: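 Flag/GST-tagged human B-Raf (Sf9, ~20 ng/point) phosphorylates non-active GST-MEK1 (50 nM final) with ATP and MgCl2 in MOPS pH 7.2 buffer, 60 min at RT. Product is captured on anti-GST plates; MEK1 pSer217/221 is read by phospho-antibody plus europium conjugate (DELFIA).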
On the technique in general: ELISA stands for enzyme-linked immunosorbent assay.

Twelve compounds from patent US20070219186A1, “Pyrazolo[1,5-A]pyrimidine derivatives and methods of use thereof” (priority 2006, published 2007) can be followed below.

Bounds are passed on as bounds.

T1 sequence (P15056 whole entry): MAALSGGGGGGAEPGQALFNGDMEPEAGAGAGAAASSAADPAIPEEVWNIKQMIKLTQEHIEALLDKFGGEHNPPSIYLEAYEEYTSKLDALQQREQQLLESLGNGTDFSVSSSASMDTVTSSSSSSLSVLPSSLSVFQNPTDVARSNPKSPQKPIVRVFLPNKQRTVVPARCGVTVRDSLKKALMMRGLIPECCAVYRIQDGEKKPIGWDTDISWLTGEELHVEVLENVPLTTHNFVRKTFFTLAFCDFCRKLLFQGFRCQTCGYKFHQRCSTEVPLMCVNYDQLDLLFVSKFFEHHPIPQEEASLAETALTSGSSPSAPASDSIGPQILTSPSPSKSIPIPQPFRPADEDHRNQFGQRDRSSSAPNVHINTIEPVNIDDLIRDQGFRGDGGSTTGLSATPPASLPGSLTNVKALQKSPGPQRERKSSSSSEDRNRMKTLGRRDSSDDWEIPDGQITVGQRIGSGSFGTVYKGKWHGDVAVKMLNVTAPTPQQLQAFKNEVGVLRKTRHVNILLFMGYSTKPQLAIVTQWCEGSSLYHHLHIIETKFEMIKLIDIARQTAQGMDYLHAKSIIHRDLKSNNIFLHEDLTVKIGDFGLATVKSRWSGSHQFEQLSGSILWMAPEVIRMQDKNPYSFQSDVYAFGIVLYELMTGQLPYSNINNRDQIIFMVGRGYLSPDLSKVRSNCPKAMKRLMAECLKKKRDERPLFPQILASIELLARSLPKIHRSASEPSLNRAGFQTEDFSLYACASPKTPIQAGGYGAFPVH

Turning to `CCOC(=O)c1cnn2c(-c3cccc(NC(=O)c4cccn4C)c3)ccnc12` [Example 215, ethyl7-(3-{[(1-methyl-1H-pyrrol-2-yl)carbonyl]amino}phenyl)pyrazolo[1,5-a]pyrimidine-3-carboxylate], the IC50 – broadly, the concentration that gives 50% inhibition – was over 10 µM and the inhibition at 10 µM is 0%.

As for `CCOC(=O)c1cnn2c(-c3cccc(NC(=O)c4cnc(C)cn4)c3)ccnc12` [Example 216, Ethyl7-(3-{[(5-methylpyrazin-2-yl)carbonyl]amino}phenyl)pyrazolo[1,5-a]pyrimidine-3-carboxylate], the IC50 was over 10 µM and the inhibition at 10 µM was determined as 3%.

Regarding `CCOC(=O)c1cnn2c(-c3cccc(NC(=O)c4cc(Cl)ccn4)c3)ccnc12` [Example 217, ethyl7-(3-{[(4-chloropyridin-2-yl)carbonyl]amino}phenyl)pyrazolo[1,5-a]pyrimidine-3-carboxylate], the IC50 was over 10 µM and the inhibition at 10 µM worked out at 34%.

Turning to `CCOC(=O)c1cnn2c(-c3cccc(NC(=O)c4nccc5ccccc45)c3)ccnc12` [Example 218, ethyl7-{3-[(isoquinolin-1-ylcarbonyl)amino]phenyl}pyrazolo[1,5-a]pyrimidine-3-carboxylate], the IC50 was determined as 4.49 µM and the inhibition at 10 µM was 73%.

As for `CCOC(=O)c1cnn2c(-c3cccc(NC(=O)c4cc5ccccc5n4C)c3)ccnc12` [Example 219, ethyl 7-(3-{[(1-methyl-1H-indol-2-yl)carbonyl]amino}phenyl)pyrazolo[1,5-a]pyrimidine-3-carboxylate], the IC50 was over 10 µM and the inhibition at 10 µM was 12%.

Consider `CCOC(=O)c1cnn2c(-c3cccc(NC(=O)c4nn(-c5ccccc5)nc4C)c3)ccnc12` [Example 220, ethyl7-(3-{[(5-methyl-2-phenyl-2H-1,2,3-triazol-4-yl)carbonyl]amino}phenyl)pyrazolo[1,5-a]pyrimidine-3-carboxylate], for which the IC50 was over 10 µM and the inhibition at 10 µM was determined as 30%.

`CCOC(=O)c1cnn2c(-c3cccc(NC(=O)c4ccc(C)s4)c3)ccnc12` [Example 221, ethyl7-(3-{[(5-methyl-2-thienyl)carbonyl]amino}phenyl)pyrazolo[1,5-a]pyrimidine-3-carboxylate]: the IC50 was determined as 9.7 µM and the inhibition at 10 µM turned out to be 65%.

For `CCOC(=O)c1cnn2c(-c3cccc(NC(=O)c4ccc(Cl)s4)c3)ccnc12` [Example 222, ethyl 7-(3-{[(5-chloro-2-thienyl)carbonyl]amino}phenyl)pyrazolo[1,5-a]pyrimidine-3-carboxylate], the IC50 was over 10 µM and the inhibition at 10 µM turned out to be 43%.

On to `CCOC(=O)c1cnn2c(-c3cccc(NC(=O)c4ccc(Br)s4)c3)ccnc12` [Example 223, ethyl7-(3-{[(5-bromo-2-thienyl)carbonyl]amino}phenyl)pyrazolo[1,5-a]pyrimidine-3-carboxylate], for which the IC50 was over 10 µM and the inhibition at 10 µM was found to be 47%.

As for `CCOC(=O)c1cnn2c(-c3cccc(NC(=O)c4ccc(-c5cc(C(F)(F)F)nn5C)s4)c3)ccnc12` [Example 224, ethyl7-{3-[({5-[1-methyl-3-(trifluoromethyl)-1H-pyrazol-5-yl]-2-thienyl}carbonyl)amino]phenyl}pyrazolo[1,5-a]pyrimidine-3-carboxylate], the IC50 was over 10 µM and the inhibition at 10 µM stood at 39%.

On to `CCOC(=O)c1cnn2c(-c3cccc(NC(=O)CC(C)(C)C)c3)ccnc12` [Example 225, ethyl7-{3-[(3,3-dimethylbutanoyl)amino]phenyl}pyrazolo[1,5-a]pyrimidine-3-carboxylate], for which the IC50 is over 10 µM and the inhibition at 10 µM is 7%.

`CCOC(=O)c1cnn2c(-c3cccc(NC(=O)CC(C)CC(C)(C)C)c3)ccnc12` (stereo not drawn) [Example 226, ethyl7-{3-[(3,5,5-trimethylhexanoyl)amino]phenyl}pyrazolo[1,5-a]pyrimidine-3-carboxylate]: the IC50 is over 10 µM and the inhibition at 10 µM came out at 43%.
